We go through 90 molecules from a melting point compilation (Tetko et al.; mined from patent text by program, amines drawn as free bases though some values may be those of a salt).

In turn, `O=C(CBr)c1ccc(OCc2ccccc2)c([N+](=O)[O-])c1` registered a melting point of 136 °C.

Turning to `COc1cc(F)c(C)cc1N`, the melting point lay in the range of 108 to 110 °C.

As to `COc1ccc2nc(C)cc(Oc3cc(-c4ccc(C(F)(F)F)cc4)ncn3)c2c1`, the melting point was in the range of 165 to 166 °C.

Consider `CNc1nc(NN)ncc1C#N`, for which the melting point fell in the range of 247 to 249 °C.

In turn, `O=C(O)c1ccc(OCCNC(=O)C2Cc3ccccc3N2S(=O)(=O)c2ccc(-c3ccc(F)cc3Cl)cc2)nc1` (stereo not given) showed a melting point of 88 to 98 °C.

As to `Nc1nc(N)c2cc(C=Cc3ccc(C(=O)O)cc3)cnc2n1`, the melting point was more than 300 °C.

`CCOc1ccc2[nH]c3c([N+](=O)[O-])ccc(Cl)c3c(=O)c2c1` yielded a melting point of 244 to 246 °C.

In turn, `CCCSc1c2c(=O)n(C)c(=O)n(CC(C)C)c2nn1Cc1cccc2ccccc12` had a melting point of 105 °C.

`O=Cc1cn(CCCCl)c2ccc(Cl)cc12` registered a melting point of 107 to 108 °C.

`COc1ccc(C=Cc2nc(CCl)co2)cc1` returned a melting point of 148 to 151 °C.

As to `CC(C)(C)C1=CC(=C(C#N)C#N)C=C(c2cccs2)S1(=O)=O`, the melting point was 164 to 165 °C.

Regarding `Cn1c(CCNC(=O)c2cc(F)cc3c2OCOC3)nc(-c2ccncn2)cc1=O`, the melting point fell in the range of 207 to 209 °C.

In the case of `CC(C)c1ccc2c(-c3cc(C(C)(C)C)c(O)c(C(C)(C)C)c3)nn(CCO)c2n1`, the melting point lay within 110 to 111 °C.

The molecule `COC(=O)c1ccc2oc3c(c(=O)c2c1)CCC3=Cc1cc(OC)c(OC)cc1OC` yielded a melting point of 221 to 224 °C.

Regarding `Nc1ccc(S(=O)(=O)c2cc(-c3cccc([N+](=O)[O-])c3)nc(N3CCCC3)c2)cc1`, the melting point is 249 to 251 °C.

`COc1ccc2c(c1)c(OCc1ccccc1)c(C(=O)O)n2-c1ccccc1` had a melting point of 123 °C.

As for `Cc1ccc(Nc2nnc(Cc3ccncc3)c3ccccc23)cc1C`, the melting point was 180 to 181 °C.

As to `N=C(N)Nc1nnc(-c2ccc([N+](=O)[O-])cc2)s1`, the melting point lay in the range of 295 to 297 °C.

Consider `CN1C(=O)CC[C@]2(C)c3ccc(-c4ccc(F)cc4C(F)(F)F)cc3CC[C@@H]12`, for which the melting point came to 70 °C.

Take `COc1cccc(C=CC(=O)C=Cc2cccc(OC)c2)c1`: the melting point was 52 to 54 °C.

Take `CC(C(=O)O)(c1ccc(N2CCCC2)cc1)c1ccc(N2CCCC2)cc1`: the melting point is 174 to 176 °C.

As for `COc1cc(CC(=O)O)ccc1OCc1nc(-c2ccccc2)oc1C`, the melting point was in the range of 176 to 177 °C.

In turn, `CCOC(=O)c1cnc2c(c(C)nn2-c2ccccc2)c1N(Cc1ccccc1)S(=O)(=O)c1ccc(OC)cc1` came in with a melting point of 164 to 166 °C.

For `CC#CCOc1ccc(S(=O)C(C(=O)NO)c2ccc(Cl)cc2)cc1` (stereo not given), the melting point turned out to be 92 °C.

`COc1ccccc1C1C(C#N)=C(c2ccccc2)Nc2n[nH]cc21` (stereo not given) had a melting point of 206 °C.

For `CCOC(=O)C1=CC(OC)(C(C)(C)C)N(c2ccc(Cl)cc2Cl)N1` (stereo not given), the melting point was in the range of 130 to 133 °C.

Molecule `Cc1nsc(-n2cc(C(=O)O)c(=O)c3cc(F)c(N4CCCC4)nc32)n1` displayed a melting point of more than 300 °C.

`COCCn1cc2c(C3C(=O)Nc4ccc(Br)cc43)nc(NCC(C)O)nc2n1` (stereo not given): the melting point was more than 300 °C.

As for `CCOP(=O)(OCC)c1ccc(Oc2ccccc2[N+](=O)[O-])cc1`, the melting point was found to be 150 °C.

`Cc1cc(CBr)c(CBr)cc1C`: the melting point lay within 116 to 120 °C.

The molecule `Cc1nnc2n1-c1sccc1C(c1ccccc1)=NC2` had a melting point of 224 to 226 °C.

Regarding `Cn1ccnc1CCNS(=O)(=O)c1ccccc1NS(=O)(=O)c1cccc(C(F)(F)F)c1`, the melting point lay within 171 to 176 °C.

`Nc1cc(OCc2ccccc2)c(OCc2ccccc2)cc1C=C(Br)Br`: the melting point lay within 95 to 98 °C.

Molecule `CC(=O)OCC(=O)C12OCOC1CC1C3CCC4=CC(=O)C=CC4(C)C3(F)C(O)CC12C` (stereo not given) came in with a melting point of 283 to 285 °C.

With `COc1ccc2c(c1)[nH]c1cc(OC)ccc12`, the melting point lay within 273 to 274 °C.

As for `Cc1ccc2c(c1)C(CC(=O)NO)N(c1ccccc1)S2(=O)=O` (stereo not given), the melting point lay in the range of 150 to 155 °C.

`CCCCOC(=O)c1ccc(N(C)C=Nc2ccc(C(=O)OCC)cc2)cc1` yielded a melting point of 83 to 85 °C.

In turn, `Cn1ncc(-c2ccc3c(c2)c(C2=CCN(CCN4CCNC4=O)CC2)cn3-c2ccc(F)cc2)n1` had a melting point of 175 to 177 °C.

For the molecule `O=c1c2ccc(Cl)cc2sn1CCCCl`, the melting point was 89 °C.

Molecule `Cc1c(O)ccc2c1OCC(c1ccc(N)cc1)C2` (stereo not given) displayed a melting point of 150 to 151 °C.

The molecule `CCCCn1c(=O)n2cnnc2c2[nH]c(-c3cc(S(=O)(=O)N4CC(CN(C)C)C4)ccc3OCCC)nc21` registered a melting point of 198 °C.

For the molecule `S=c1[nH]ccn1C1CCc2ccccc2C1` (stereo not given), the melting point is 233 to 234 °C.

Molecule `Nc1c(Br)cc(N=C2NCCN2)cc1Br` gave a melting point of 152 to 153 °C.

`COCCCNCc1noc([C@H](CCCC2CCCCC2)CC(=O)NO)n1` returned a melting point of 60 °C.

Regarding `O=C(O)[C@@H]1CN(CCn2c(=O)ccc3c(F)cc(F)cc32)CC[C@H]1NCc1cc2c(cn1)OCCO2`, the melting point was more than 190 °C.

For `O=c1c2ccc(Cl)cc2ncn1CCCCn1ccnc1`, the melting point was in the range of 123 to 125 °C.

Molecule `COC(=O)c1cc2c(N3CCNCC3)cccc2[nH]1` gave a melting point of 177 to 180 °C.

As to `CC1(C)CC(=O)C=C(OC(=O)c2cccc3nnsc23)C1`, the melting point fell in the range of 131 to 133 °C.

Take `O=C1[C@H]2CCC[C@H]2Nc2ccc(F)cc2N1Cc1ccccc1` (relative stereo): the melting point lay in the range of 124 to 126 °C.

Molecule `CCc1cc(C(C)=O)c(O)cc1OCCCCCCc1nnn[nH]1` registered a melting point of 126 to 127 °C.

For `COCCN(C)Cc1c(-c2ccc([N+](=O)[O-])cc2)sc2c1c(=O)n(-c1ccc3c(c1)OCO3)c(=O)n2Cc1c(F)cccc1F`, the melting point was 190 to 192 °C.

`O=C(Cc1c2c(nn1-c1ccccc1)c(=O)[nH]c1ccccc12)N1CCN(Cc2ccccc2)CC1` had a melting point of 283 to 285 °C.

As for `O=C(Nc1cccc2ccccc12)OCc1ccc(CO)cc1`, the melting point is 158 to 159 °C.

In the case of `COC(=O)Nc1nc2ccc(Sc3ccccc3)cn2c1CN(C)C`, the melting point lay in the range of 172 to 175 °C.

Consider `CCCCN(C(C)=O)C1NC(=O)N(c2ccc(OC(C)=O)cc2)C(=O)N1`, for which the melting point is 206 to 208 °C.

In the case of `C[C@]12CCC(=O)N[C@@H]1CCc1cc(-c3ccccc3Cl)ccc12`, the melting point was in the range of 189 to 191 °C.

`COCC(=O)Nc1c(C(=O)c2cccc(C)c2)[nH]c2ccc([N+](=O)[O-])cc12` returned a melting point of 155 to 157 °C.

Molecule `CN1CCC(O)(c2cc(F)c(Br)cc2F)CC1` displayed a melting point of 133 to 135 °C.

With `COC(=O)c1sc(S(C)(=O)=O)cc1O`, the melting point is 138 to 140 °C.

As to `OCCSC(=S)Nc1ccccn1`, the melting point amounted to 88 °C.

Molecule `CCCCNc1ccc(S(=O)(=O)N2CC(N(Cc3ccccc3)C(=O)OC(C)(C)C)C2)cc1` registered a melting point of 115 to 116 °C.

`CCNC(=O)c1cccc(F)c1[Si](C)(C)C` returned a melting point of 80 to 82 °C.

`CCn1cc(C(=O)O)c(=O)c2cc(F)c(N3CCC(NC)C3)nc21` (stereo not given): the melting point stood at 242 °C.

In the case of `CCCCCCCCc1ccc(C(=O)NN)cc1`, the melting point stood at 90 °C.

Take `Cc1cc(C(=O)Nc2cc(F)ccc2O)c(Br)s1`: the melting point lay within 210 to 212 °C.

As to `O=c1cnc2cc(C(c3cccc(Cl)c3)n3ccnc3)ccc2[nH]1` (stereo not given), the melting point worked out at 253 °C.

`CCC(O)c1cnc2c(C)c(NC(=O)c3ccc(-c4ccc(F)cc4)cc3)ccc2c1` (stereo not given) showed a melting point of 204 to 208 °C.

`O=C1NCC(C(=O)O)S1` (stereo not given) showed a melting point of 148 to 150 °C.

Molecule `C/C(=C(\C#N)C(N)=S)N1CCCN(c2cccc(C)c2)CC1` registered a melting point of 144 to 148 °C.

Molecule `O=C(Nc1ccc(OCCN2CCOCC2)c2ccccc12)c1cc(F)cc(N2CCCCCC2)c1` returned a melting point of 142 to 144 °C.

Turning to `COc1ccc(S(=O)(=O)C2(CCC/C=C/c3ccc(Cl)cc3)SC(=O)NC2=O)cc1` (stereo not given), the melting point was 182 to 184 °C.

Molecule `COc1ccc(C(=O)C2C(Cl)=CC=CC2(C)Cl)cc1Br` (stereo not given) returned a melting point of 159 °C.

As to `CCOC(=O)c1c(CCc2ccc(OC)cc2)nc2c(c1-c1ccc(C(=O)NCc3ccccn3)cc1)C(=O)N1CCC[C@H]1C2`, the melting point is more than 200 °C.

The molecule `CN1C(C2CCCCC2)Nc2ccc(S(=O)(=O)N3CCOCC3)cc2S1(=O)=O` (stereo not given) showed a melting point of 243 to 245 °C.

The molecule `Cc1cnc2ccc(-c3cccc(C(F)(F)F)c3)nn12` came in with a melting point of 105 to 107 °C.

In turn, `CCOC(=O)CNCc1cc(N(C)C)ccc1[N+](=O)[O-]` showed a melting point of 70 to 72 °C.

As for `c1cncc(CC[C@H]2CNCCN2)c1`, the melting point lay within 104 to 110 °C.

Molecule `Cc1cc2c(c(C)c1SC#N)CCC(C)(C)O2` came in with a melting point of 96 to 97 °C.

As for `CCOCCN(c1cccc2cc(C(N)=O)[nH]c12)S(=O)(=O)c1cccs1`, the melting point was found to be 135 °C.

Consider `O=C(NC1CC1)C1CC(=O)N(Cc2ccccc2)C1` (stereo not given), for which the melting point was 94 to 96 °C.

With `Cn1cnnc1C(N)(c1ccc(Cl)cc1)c1ccc2c(c1)c(-c1cccc(Cl)c1)cc(=O)n2C` (stereo not given), the melting point is 210 °C.

Consider `O=C1NCCc2c(OCC(O)CN3CCCCC3)cccc21` (stereo not given), for which the melting point lay in the range of 162 to 164 °C.

The molecule `COc1cc2c(cc1C#N)C1(CO2)C(=O)Nc2ccccc21` (stereo not given) had a melting point of 185 to 186 °C.

Consider `O=c1ncc(Br)cn1COCc1ccccc1`, for which the melting point stood at 169 °C.

As for `CC(C)(OCc1n[nH]c2ccc([N+](=O)[O-])cc12)C(=O)O`, the melting point stood at 210 °C.

For the molecule `COC(=O)c1ccccc1-c1nc2cc(CBr)ccc2o1`, the melting point was in the range of 92 to 95 °C.

In turn, `Cc1c(F)cc(C(C)(C)C)c(O)c1-c1nc2ccc(F)cc2c(=O)[nH]1` had a melting point of 247 to 248 °C.

As for `Cc1nc(-c2cc3cc(OCCNC[C@H](O)COc4ccccc4Cl)ccc3o2)no1`, the melting point lay in the range of 106 to 108 °C.

`Brc1ccc2c(c1)C(c1ccccc1)OC(c1ccncc1)=N2` (stereo not given) had a melting point of 161 to 162 °C.

`CC(CO)C1CCC2C3CCC4=C(N)C(=O)CCC4(C)C3CCC12C` (stereo not given): the melting point lay within 180 to 185 °C.
